# Reference: patent US9539257B2, “Method of treating cancer” (NOVARTIS AG, priority 2009, dated 2017)
# Legend:
# TNXB rs12153855 = assay: ALT case-control genetic association, confirmatory study (lapatinib plus letrozole arm); type: in vivo, human; details: TNXB rs12153855 CC/CT
# Source text: (§1) Germline DNA was extracted from peripheral blood (QiAmp DNA Blood Kit, Qiagen, Valencia, Calif.). This study evaluated candidate gene and genome-wide screening, performed in parallel, to detect case-control association signals in the exploratory cohort. Class I and II HLA genes (seven genes to 4-digit and three genes to 2-digit resolution) were typed by Laboratory Corporation of America (Burlington, N.C.) and Histogenetics (Ossining, N.Y.), or at GSK using the LABType® SSO Typing Test (One Lambda, Canoga Park, Calif.). […] Whole genome screen genotyping on the Illumina Human 1M-Duo platform was also conducted (Expression Analysis, Durham, N.C.).
# (§2) For the exploratory study, initial analysis of the GWAS was done using logistic regression, carried out in PLINK (Purcell S, et al. American Journal of Human Genetics 2007; 81, 559-575) using the genotypic test option when three genotype classes were observed, or the additive test option when only two genotype classes were observed. […] In addition to the genotype term, all models included baseline ALT xULN, treatment group (for the exploratory study), and a sufficient number of principal components to account for potential confounding by population structure. Principal components were obtained from EIGENSOFT (Patterson N. et al. PLoS Genetics 2006; 2: e190), using study subjects and HapMap founders.
# (§3) Genetic markers selected for confirmatory were required to achieve pre-defined p-value thresholds in the exploratory analysis of p≦0.05 for HLA markers, p≦0.01 for candidate gene markers and p≦10-4 for whole genome screen SNPs. For markers confirmed at p≦0.01, measures of potential clinical utility were evaluated. An allele or genotype(s) was designated which conferred a higher risk of ALT elevation and this was compared to the non-risk allele(s)/genotype(s) and the odds ratio (OR), positive predictive value (PPV), and negative predictive value (NPV) calculated.
# [1] = On-treatment liver chemistry (ALT, TBL, ALP), confirmatory study PGx population, lapatinib plus letrozole phase III trial; type: in vivo, human
# HLA-B*4403 = details: matched case-control
# Experimental: (§4) The two phenotypes that were evaluated were maximum on-treatment liver chemistry values for ALT and TBL with respect to the upper limit of normal. These phenotypes were evaluated separately in case-control and quantitative trait analyses and jointly in a combined case-control analysis. ALT and TBL cases were defined as maximum on-treatment elevations of ≧3×ULN and ≧1.5×ULN, respectively, and control subjects were defined as maximum on-treatment ALT or TBL of ≦1×ULN. Approximately 950 patients with an adequate, fully consented DNA sample had available clinical data for these phenotypes. After subject genotyping quality control was completed, a total of 947 patients remained for pharmacogenetic analyses on at least one genetic variant.
# HLA-DRB1*0701 [2] = tested on: HLA-DRB1*0701
# Experimental: as §4
# HLA-DQB1*0202 = details: Exploratory study
# Source text: as §1, §2, §3
# HLA-DQA1*0201 = tested on: HLA-DQA1*0201
# Source text: as §1, §2, §3
# HLA-DRB1*0701 [3] = details: Exploratory study
# Source text: as §1, §2, §3
# UGT1A1*28 = details: exploratory
# Experimental: The two phenotypes that were evaluated were maximum on-treatment liver chemistry values for ALT and TBL with respect to the upper limit of normal. These phenotypes were evaluated separately in case-control and quantitative trait analyses and jointly in a combined case-control analysis. ALT and TBL cases were defined as maximum on-treatment elevations of ≧3×ULN and ≧1.5×ULN, respectively, and control subjects were defined as maximum on-treatment ALT or TBL of ≦1×ULN.
# 2) As genetic understanding of drug-induced liver injury is limited, a comprehensive drug induced liver injury (DILI) panel, developed by GSI in consultation with external liver experts was also evaluated. This DILI panel is comprised of approximately 6500 single nucleotide polymorphisms (SNPs) in 270 gene regions derived from the postulated mechanisms involved in the pathophysiology of DILI. In both approaches, genetic variation in each gene region was investigated using tag SNPs selected from the International HapMap project and/or high density SNP coverage consisting of all functional SNPs with a previously recorded genotype to phenotype correlation. […] Evaluation of HLA genes focused on a subset of the total number of patients consisting of all ALT cases (N=47) and matched controls (N=47).
# DQA1*0201/DQB1*0201g = assay: ALT case/non-case association with DQ2.2 serotype allele combinations, confirmatory study; type: in vivo, human
# Experimental: as §3
# HLA Class II peptides form heterodimer proteins where DQA1/DQB1 and DRA/DRB1 combinations create discrete antigen binding sites (Jones E Y, et al. Nature Reviews: Immunology 2006; 6; 271-282). HLA-DRA is functionally monomorphic and no further marker discrimination can be gained by evaluating specific allelic combinations. In contrast, both DQA1*0201 and DQB1*0202 are polymorphic.
# [4] = Confirmatory Study ALT Cases (N=24)
# [5] = Confirmatory Study ALT Cases with HLA Data Available, at time of maximum ALT
# [6] = Confirmatory Study ALT Controls (N=155)
# [7] = Confirmatory Study PGx Population (1 trial, N=374), lapatinib combination with letrozole
# [8] = Confirmatory Study PGx Population (N=374), lapatinib + letrozole
# [9] = lapatinib plus letrozole arm of the confirmatory study
# [10] = DQA1*0201/DQB1*0201g carriage, cases vs non-cases, ALT > 3 xULN, Confirmatory study
# [11] = DQA1*0201/DQB1*0201g, ALT > 3 xULN threshold, Confirmatory study
structure (smiles),measurement,setting,value
"CS(=O)(=O)CCNCc1ccc(-c2ccc3ncnc(Nc4ccc(OCc5cccc(F)c5)c(Cl)c4)c3c2)o1 [lapatinib, N-(3 chloro-4-{[(3-fluorophenyl)methyl]oxy}phenyl)-6-[5-({[2 (methylsulfonyl)ethyl]amino}methyl)-2-furanyl]-4-quinazolinamine bis(4 methylbenzenesulfonate)monohydrate]",Carriage: cases (%),TNXB rs12153855; ALT cases,(63%)
same,Carriage: cases (n/N),TNXB rs12153855; ALT cases,15/24
same,Carriage: controls (%),TNXB rs12153855; ALT controls,(19%)
same,Carriage: controls (n/N),TNXB rs12153855; ALT controls,29/155
same,Maximum on treatment ALT xULN: Mean(SD),[1]; [4],6.50(3.73) xULN
same,Maximum on treatment ALT xULN: Median,[1]; [4],4.96 xULN
same,N of ALT cases with Cholestatic injury type,[1]; [5],3
same,N of ALT cases with Hepatocellular injury type,[1]; [5],12
same,N of ALT cases with Mixed injury type,[1]; [5],9
same,Maximum on treatment ALT xULN: Mean(SD),[1]; [6],0.66(0.19) xULN
same,Maximum on treatment ALT xULN: Median,[1]; [6],0.65 xULN
same,Maximum on treatment ALT xULN: Mean(SD),[1]; [7],1.53 (1.97) xULN
same,Maximum on treatment ALT xULN: Median,[1]; [7],0.91 xULN
same,Maximum on treatment ALT > 3 xULN (%),[1]; [8],9.4%
same,Maximum on treatment ALT > 5 xULN (%),[1]; [8],5.1%
same,Maximum on treatment ALT > 8 xULN (%),[1]; [8],2.4%
same,Maximum on treatment TBL xULN: Mean(SD),[1]; [8],0.93 (1.48) xULN
same,Maximum on treatment TBL xULN: Median,[1]; [8],0.76 xULN
same,"hepatobiliary adverse event cases (ALT>3x and TBL >1.5xULN, irrespective of baseline ALT), number",[1]; [9],Fifteen
same,"patients adjudicated by liver experts as probable Hy's Rule cases, number",[1]; [9],two
same,ALT cases carrying one copy of HLA-B*4403,HLA-B*4403; 47 cases,Twenty three
same,ALT controls carrying one copy of HLA-B*4403,HLA-B*4403; 47 controls,6%
same,combined ALT/TBL cases with at least one of the significant HLA alleles,"HLA-DRB1*0701 [2]; exploratory, 4/13 combined cases, HLA-DRB1*0701 or HLA-B*4403",31%
same,ALT cases with at least one copy of HLA-DRB1*0701,"HLA-DRB1*0701 [2]; matched case-control, 47 cases",40%
same,ALT controls with at least one copy of HLA-DRB1*0701,"HLA-DRB1*0701 [2]; matched case-control, 47 controls",13%
same,Carriage: cases (%),HLA-DQB1*0202; ALT cases,(37%)
same,Carriage: cases (n/N),HLA-DQB1*0202; ALT cases,13/35
same,Carriage: controls (%),HLA-DQB1*0202; ALT controls,(17%)
same,Carriage: controls (n/N),HLA-DQB1*0202; ALT controls,47/281
same,Carriage: cases (n/N),"HLA-DQA1*0201; DQA1*0201 carriage, ALT cases (>3xULN), Exploratory study",14/35
same,Carriage: controls (n/N),"HLA-DQA1*0201; DQA1*0201 carriage, ALT controls, Exploratory study",58/283
same,"% that carry DQA1*0201, Cholestatic",HLA-DQA1*0201; Exploratory Study ALT Cases,25%
same,"% that carry DQA1*0201, Hepatocellular",HLA-DQA1*0201; Exploratory Study ALT Cases,43%
same,"% that carry DQA1*0201, Mixed",HLA-DQA1*0201; Exploratory Study ALT Cases,40%
same,"N that carry DQA1*0201, Cholestatic",HLA-DQA1*0201; Exploratory Study ALT Cases,1
same,"N that carry DQA1*0201, Hepatocellular",HLA-DQA1*0201; Exploratory Study ALT Cases,9
same,"N that carry DQA1*0201, Mixed",HLA-DQA1*0201; Exploratory Study ALT Cases,4
same,Carriage: cases (%),HLA-DRB1*0701 [3]; ALT cases,(40%)
same,Carriage: cases (n/N),HLA-DRB1*0701 [3]; ALT cases,14/35
same,Carriage: controls (%),HLA-DRB1*0701 [3]; ALT controls,(21%)
same,Carriage: controls (n/N),HLA-DRB1*0701 [3]; ALT controls,59/283
same,TBL cases with TA7/TA7 genotype,UGT1A1*28; TBL cases (N=60),Thirty five
same,TBL cases with at least one TA7 allele,UGT1A1*28; TBL cases (N=60),82%
same,TBL controls with TA7/TA7 genotype,UGT1A1*28; controls (N=396),5%
same,TBL controls with at least one TA7 allele,UGT1A1*28; controls (N=396),48%
same,HLA Carrier: Cases (number),"DQA1*0201/DQB1*0201g; DQA1*0201/DQB1*0201g (DQ2.2 serotype), ALT Cases > 3 xULN, Confirmatory study",17
same,NPV (CI),DQA1*0201/DQB1*0201g; [10],"0.976 (0.951, 0.990)"
same,OR (CI),DQA1*0201/DQB1*0201g; [10],"10.2 (3.8, 30.0)"
same,PPV (CI),DQA1*0201/DQB1*0201g; [10],"0.20 (0.12, 0.30)"
same,HLA Carrier: Non Cases (number),DQA1*0201/DQB1*0201g; [11],67
same,HLA Non-Carrier: Non Cases (number),DQA1*0201/DQB1*0201g; [11],281
same,HLA Non-Carrier: Cases (number),"DQA1*0201/DQB1*0201g; DQA1*0201/DQB1*0201g, ALT Cases > 3 xULN, Confirmatory study",7
same,DQA1*0201/DQB1*0201g allele combinations in ALT cases,DQA1*0201/DQB1*0201g; confirmatory study (17/24),71%
same,DQA1*0201/DQB1*0201g allele combinations in non-cases,DQA1*0201/DQB1*0201g; confirmatory study (67/348),19%
